Reference: PubChem BioAssay AID248 (DTP/NCI, 2004)
Where “and” joins values, the source holds several entries; their conditions need not be identical. Identical values can stand only once. Inconclusive results and toxic doses are left out. Cut-off read from the data, not from the text of the source: active = T/C of 150% or more; inactive = T/C below 125%.

System: L1210 leukemia ip in BDF1 mice, survival T/C
Assay: NCI In Vivo Anticancer Drug Screen. Data for tumor model L1210 Leukemia (intraperitoneal) in B6D2F1 (BDF1) mice
Settings: higher = longer survival
Procedure, shortened: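 Transplantable tumor model; survival measured in treated vs vehicle control mice. Value = treated/control.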

Measured: T/C

COc1cc2cc3c4cc(OC)c(OC)cc4cc[n+]3c(C)c2cc1OC (tested in a mixture with another compound)
inactive: endpoint: mean survival time, dose: 5.0 mg/kg/injection, schedule: Q01DX009 (ip), vehicle: saline 105 % of control and 113 % of control | endpoint: mean survival time, dose: 8.0 mg/kg/injection, schedule: Q01DX009 (ip), vehicle: Klucel (hydroxypropylcellulose) (HPC) 114 % of control | endpoint: mean survival time, dose: 10.0 mg/kg/injection, schedule: Q01DX009 (ip), vehicle: saline 105 % of control | endpoint: mean survival time, dose: 16.0 mg/kg/injection, schedule: Q01DX009 (ip), vehicle: clinical formulation 116 % of control | endpoint: mean survival time, dose: 16.0 mg/kg/injection, schedule: Q03HX024 (ip), vehicle: saline 107 % of control | endpoint: mean survival time, dose: 40.0 mg/kg/injection, schedule: Q01DX009 (ip), vehicle: saline 116 % of control | endpoint: mean survival time, dose: 64.0 mg/kg/injection, schedule: Q03HX024 (ip), vehicle: saline 113 % of control | endpoint: mean survival time, dose: 80.0 mg/kg/injection, schedule: Q01DX009 (ip), vehicle: saline 117 % of control | endpoint: mean survival time, dose: 100.0 mg/kg/injection, schedule: Q04DX003 (ip), vehicle: saline with Tween-80 116 % of control | endpoint: mean survival time, dose: 128.0 mg/kg/injection, schedule: Q08DX002 (ip), vehicle: saline 112 % of control | endpoint: mean survival time, dose: 150.0 mg/kg/injection, schedule: Q04DX003 (ip), vehicle: saline with Tween-80 117 % of control | endpoint: mean survival time, dose: 200.0 mg/kg/injection, schedule: Q04DX002 (ip), vehicle: saline 105 % of control | endpoint: mean survival time, dose: 256.0 mg/kg/injection, schedule: Q04DX003 (ip), vehicle: saline 118 % of control | endpoint: median survival time, dose: 8.0 mg/kg/injection, schedule: Q01DX009 (ip), vehicle: Klucel (hydroxypropylcellulose) (HPC) 108 % of control | endpoint: median survival time, dose: 8.0 mg/kg/injection, schedule: Q01DX009 (ip), vehicle: clinical formulation 110 % of control | endpoint: median survival time, dose: 8.0 mg/kg/injection, schedule: Q01DX009 (ip), vehicle: other 117 % of control | endpoint: median survival time, dose: 8.0 mg/kg/injection, schedule: Q01DX009 (ip), vehicle: water 111 % of control | endpoint: median survival time, dose: 8.0 mg/kg/injection, schedule: Q01DX009 (oral), vehicle: other 99 % of control and 113 % of control | endpoint: median survival time, dose: 8.0 mg/kg/injection, schedule: Q01DX009 (sc), vehicle: other 104 % of control | endpoint: median survival time, dose: 16.0 mg/kg/injection, schedule: Q01DX009 (ip), vehicle: Klucel (hydroxypropylcellulose) (HPC) 104 % of control | endpoint: median survival time, dose: 16.0 mg/kg/injection, schedule: Q01DX009 (ip), vehicle: clinical formulation 114 % of control | endpoint: median survival time, dose: 16.0 mg/kg/injection, schedule: Q01DX009 (oral), vehicle: other 98 % of control and 105 % of control | endpoint: median survival time, dose: 16.0 mg/kg/injection, schedule: Q01DX009 (oral), vehicle: saline 100 % of control | endpoint: median survival time, dose: 16.0 mg/kg/injection, schedule: Q01DX009 (sc), vehicle: other 104 % of control | endpoint: median survival time, dose: 25.0 mg/kg/injection, schedule: Q01DX009 (ip), vehicle: Klucel (hydroxypropylcellulose) (HPC) 98 % of control and 99 % of control | endpoint: median survival time, dose: 25.0 mg/kg/injection, schedule: Q01DX009 (ip), vehicle: other 98 % of control and 99 % of control | endpoint: median survival time, dose: 25.0 mg/kg/injection, schedule: Q01DX009 (ip), vehicle: saline 99 % of control and 100 % of control | endpoint: median survival time, dose: 32.0 mg/kg/injection, schedule: Q01DX001 (oral), vehicle: saline 95 % of control and 100 % of control | endpoint: median survival time, dose: 32.0 mg/kg/injection, schedule: Q01DX001 (sc), vehicle: saline 95 % of control | endpoint: median survival time, dose: 32.0 mg/kg/injection, schedule: Q01DX009 (oral), vehicle: other 115 % of control and 116 % of control | endpoint: median survival time, dose: 32.0 mg/kg/injection, schedule: Q01DX009 (oral), vehicle: saline 100 % of control | endpoint: median survival time, dose: 32.0 mg/kg/injection, schedule: Q01DX009 (sc), vehicle: other 100 % of control | endpoint: median survival time, dose: 32.0 mg/kg/injection, schedule: Q01DX009 (sc), vehicle: saline 95 % of control | endpoint: median survival time, dose: 50.0 mg/kg/injection, schedule: Q01DX009 (ip), vehicle: Klucel (hydroxypropylcellulose) (HPC) 100 % of control and 101 % of control | endpoint: median survival time, dose: 50.0 mg/kg/injection, schedule: Q01DX009 (ip), vehicle: other 95 % of control and 96 % of control | endpoint: median survival time, dose: 50.0 mg/kg/injection, schedule: Q01DX009 (ip), vehicle: saline 100 % of control and 101 % of control | endpoint: median survival time, dose: 64.0 mg/kg/injection, schedule: Q01DX001 (ip), vehicle: other 118 % of control | endpoint: median survival time, dose: 64.0 mg/kg/injection, schedule: Q01DX001 (oral), vehicle: other 100 % of control and 101 % of control | endpoint: median survival time, dose: 64.0 mg/kg/injection, schedule: Q01DX001 (oral), vehicle: saline 100 % of control | endpoint: median survival time, dose: 64.0 mg/kg/injection, schedule: Q01DX001 (sc), vehicle: other 114 % of control | endpoint: median survival time, dose: 64.0 mg/kg/injection, schedule: Q01DX009 (oral), vehicle: other 106 % of control and 114 % of control | endpoint: median survival time, dose: 64.0 mg/kg/injection, schedule: Q01DX009 (oral), vehicle: saline 100 % of control | endpoint: median survival time, dose: 64.0 mg/kg/injection, schedule: Q01DX009 (sc), vehicle: other 101 % of control | endpoint: median survival time, dose: 64.0 mg/kg/injection, schedule: Q01DX009 (sc), vehicle: saline 100 % of control | endpoint: median survival time, dose: 64.0 mg/kg/injection, schedule: Q04DX003 (sc), vehicle: saline 100 % of control | endpoint: median survival time, dose: 100.0 mg/kg/injection, schedule: Q01DX009 (ip), vehicle: Klucel (hydroxypropylcellulose) (HPC) 96 % of control and 97 % of control | endpoint: median survival time, dose: 100.0 mg/kg/injection, schedule: Q01DX009 (ip), vehicle: saline 105 % of control and 108 % of control | endpoint: median survival time, dose: 128.0 mg/kg/injection, schedule: Q01DX001 (oral), vehicle: other 100 % of control and 104 % of control | endpoint: median survival time, dose: 128.0 mg/kg/injection, schedule: Q01DX001 (oral), vehicle: saline 100 % of control | endpoint: median survival time, dose: 128.0 mg/kg/injection, schedule: Q01DX001 (sc), vehicle: other 100 % of control | endpoint: median survival time, dose: 128.0 mg/kg/injection, schedule: Q01DX001 (sc), vehicle: saline 100 % of control | endpoint: median survival time, dose: 128.0 mg/kg/injection, schedule: Q01DX009 (ip), vehicle: water 98 % of control | endpoint: median survival time, dose: 128.0 mg/kg/injection, schedule: Q01DX009 (oral), vehicle: other 98 % of control and 110 % of control | endpoint: median survival time, dose: 128.0 mg/kg/injection, schedule: Q01DX009 (oral), vehicle: saline 100 % of control | endpoint: median survival time, dose: 128.0 mg/kg/injection, schedule: Q01DX009 (sc), vehicle: other 100 % of control | endpoint: median survival time, dose: 128.0 mg/kg/injection, schedule: Q01DX009 (sc), vehicle: saline 105 % of control | endpoint: median survival time, dose: 200.0 mg/kg/injection, schedule: Q01DX009 (ip), vehicle: Klucel (hydroxypropylcellulose) (HPC) 95 % of control and 96 % of control | endpoint: median survival time, dose: 200.0 mg/kg/injection, schedule: Q01DX009 (ip), vehicle: other 117 % of control | endpoint: median survival time, dose: 200.0 mg/kg/injection, schedule: Q01DX009 (ip), vehicle: saline 95 % of control and 98 % of control | endpoint: median survival time, dose: 256.0 mg/kg/injection, schedule: Q01DX001 (oral), vehicle: other 99 % of control and 100 % of control | endpoint: median survival time, dose: 256.0 mg/kg/injection, schedule: Q01DX001 (oral), vehicle: saline 100 % of control | endpoint: median survival time, dose: 256.0 mg/kg/injection, schedule: Q01DX001 (sc), vehicle: other 100 % of control | endpoint: median survival time, dose: 256.0 mg/kg/injection, schedule: Q01DX009 (oral), vehicle: other 100 % of control and 110 % of control | endpoint: median survival time, dose: 256.0 mg/kg/injection, schedule: Q01DX009 (oral), vehicle: saline 110 % of control | endpoint: median survival time, dose: 256.0 mg/kg/injection, schedule: Q01DX009 (sc), vehicle: other 99 % of control | endpoint: median survival time, dose: 256.0 mg/kg/injection, schedule: Q01DX009 (sc), vehicle: saline 110 % of control | endpoint: median survival time, dose: 256.0 mg/kg/injection, schedule: Q04DX003 (sc), vehicle: saline 100 % of control | endpoint: median survival time, dose: 400.0 mg/kg/injection, schedule: Q01DX009 (ip), vehicle: Klucel (hydroxypropylcellulose) (HPC) 96 % of control and 97 % of control | endpoint: median survival time, dose: 512.0 mg/kg/injection, schedule: Q01DX001 (oral), vehicle: other 98 % of control and 101 % of control | endpoint: median survival time, dose: 512.0 mg/kg/injection, schedule: Q01DX001 (oral), vehicle: saline 100 % of control | endpoint: median survival time, dose: 512.0 mg/kg/injection, schedule: Q01DX001 (sc), vehicle: other 99 % of control | endpoint: median survival time, dose: 512.0 mg/kg/injection, schedule: Q01DX001 (sc), vehicle: saline 100 % of control | endpoint: median survival time, dose: 512.0 mg/kg/injection, schedule: Q08DX002 (ip), vehicle: other 99 % of control | endpoint: median survival time, dose: 1024.0 mg/kg/injection, schedule: Q01DX001 (oral), vehicle: other 98 % of control and 100 % of control

Cc1cc2nncn2c2ccccc12
inactive: endpoint: mean survival time, dose: 50.0 mg/kg/injection, schedule: Q01DX001 (ip), vehicle: saline 103 % of control | endpoint: mean survival time, dose: 100.0 mg/kg/injection, schedule: Q01DX001 (ip), vehicle: saline 101 % of control | endpoint: mean survival time, dose: 200.0 mg/kg/injection, schedule: Q01DX001 (ip), vehicle: saline 101 % of control
